Data set [1] relates to obese diabetic db/db transgenic mice. The following applies: cited from earlier work.
In data set [2] the target is T1, Human glucocorticoid receptors (Homo sapiens, UniProt P04150).
T1 construct: made in house; host or cells: Sf9 insect cells, recombinant baculovirus (BAC-TO-BAC)
T1 sequence (P04150 1-777): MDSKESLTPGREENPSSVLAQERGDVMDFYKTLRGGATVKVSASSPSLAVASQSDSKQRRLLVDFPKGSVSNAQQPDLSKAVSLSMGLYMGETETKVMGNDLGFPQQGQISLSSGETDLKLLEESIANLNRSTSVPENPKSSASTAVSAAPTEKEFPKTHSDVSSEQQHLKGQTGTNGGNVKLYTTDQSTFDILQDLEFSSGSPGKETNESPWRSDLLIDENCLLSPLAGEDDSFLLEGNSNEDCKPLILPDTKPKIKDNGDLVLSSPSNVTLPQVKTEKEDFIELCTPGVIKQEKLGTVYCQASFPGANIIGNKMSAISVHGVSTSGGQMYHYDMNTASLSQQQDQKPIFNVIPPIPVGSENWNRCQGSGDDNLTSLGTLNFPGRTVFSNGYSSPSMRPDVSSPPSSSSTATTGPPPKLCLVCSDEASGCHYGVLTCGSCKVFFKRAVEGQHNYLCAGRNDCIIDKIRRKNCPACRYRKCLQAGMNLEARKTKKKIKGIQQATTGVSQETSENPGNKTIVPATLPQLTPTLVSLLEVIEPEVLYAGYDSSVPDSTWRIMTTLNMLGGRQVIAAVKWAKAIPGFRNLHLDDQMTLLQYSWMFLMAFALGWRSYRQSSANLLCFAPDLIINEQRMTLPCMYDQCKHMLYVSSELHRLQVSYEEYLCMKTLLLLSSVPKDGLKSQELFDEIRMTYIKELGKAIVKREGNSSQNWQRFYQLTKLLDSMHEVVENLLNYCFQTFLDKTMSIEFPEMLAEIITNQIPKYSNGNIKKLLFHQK
Put plainly: Radioligand filter binding assay, displacement of 3(H)-dexamethasone from human glucocorticoid receptor cytosol. The following applies: 1.7 μM test compound, inhibition of 3(H)-dex binding to hGR; for inhibition at 1.7 µM: read-out: GR BINDING (% Inhibition @ 1.7 μM).
Method: Dexamethasone hereafter referred to as dex was purchased from SIGMA. […] Human glucocorticoid receptors were extracted from Sf9 cells infected with a recombinant baculovirus transfer vector containing the cloned hGR genes. […] The recombinant baculovi, uses expressing hGR were amplified and used to infect Sf9 cells. Infected cells were harvested 48 hrs post infection. […] The concentration of hGR in the extract was measured as specific ^3(H)-dex binding with the G25-assay as described in J. Steroid Biochem. Molec. […] The extract was aliquoted and stored at −70° C.
The filter binding assay: Dilution series of the test compounds and dex as reference were made from 10 mM (1 mM dex) stock solutions in DMSO. 10 μl of the dilutions was added in duplicates to the wells. The cell extracts were diluted 10 fold in EPMo +MTG buffer (1 mM EDTA, HPO4 20 mM (pH8), 6 mM MTG). […] 110 μl of the diluted ^3(H)-dex were added to the wells. The final concentration of hGR in the experiment was estimated to 1 nM. All preparations were made in ambient temperature (20-25° C.) on ice and with +4° C. temperated buffers. The plates were incubated over night at +4° C. (15-20hrs).
The incubation was stopped by filtration through GF/B filter on the Tomtec Cellharvester. The filtration on the Tomtec Cellharvester was programmed as follows: 1) Preparation before filtration with EP buffer (1 mM EDTA 20 mM HPO4 (pH8)) 2×(Wash/Asp 0.6 sec., Asp 0.5 sec.); 2) Prewet of GF/B filter with EP+PEI buffer (EP buffer, 0.3% Polyesthylenimine) (Asp 0.8 sec.). 3) Filtration/harvesting of the 96-well incubation plate 3×(Wash/Asp 0.6 sec., Asp 0.5 sec.). The GF/B filter was dried for at least 1 hr at 65° C. A MeltiLex scintillation wax was melted onto the filter with the Microsealer. The filter was placed in a samplebag, which was thereafter trimmed with scissors to fit the filter cassette. The cassette were placed in the Microbeta and measured for 1 min/position, returning ccpm (conrected counts per minute).
The Microbeta-instrument generates the mean cpm (counts per minute) value/minute and corrects for individual variations between the detectors thus generating corrected cpm values.

In data set [3] the target is T2, progesterone receptor (PR) (Homo sapiens, UniProt P06401).
T2 sequence (P06401 1-933): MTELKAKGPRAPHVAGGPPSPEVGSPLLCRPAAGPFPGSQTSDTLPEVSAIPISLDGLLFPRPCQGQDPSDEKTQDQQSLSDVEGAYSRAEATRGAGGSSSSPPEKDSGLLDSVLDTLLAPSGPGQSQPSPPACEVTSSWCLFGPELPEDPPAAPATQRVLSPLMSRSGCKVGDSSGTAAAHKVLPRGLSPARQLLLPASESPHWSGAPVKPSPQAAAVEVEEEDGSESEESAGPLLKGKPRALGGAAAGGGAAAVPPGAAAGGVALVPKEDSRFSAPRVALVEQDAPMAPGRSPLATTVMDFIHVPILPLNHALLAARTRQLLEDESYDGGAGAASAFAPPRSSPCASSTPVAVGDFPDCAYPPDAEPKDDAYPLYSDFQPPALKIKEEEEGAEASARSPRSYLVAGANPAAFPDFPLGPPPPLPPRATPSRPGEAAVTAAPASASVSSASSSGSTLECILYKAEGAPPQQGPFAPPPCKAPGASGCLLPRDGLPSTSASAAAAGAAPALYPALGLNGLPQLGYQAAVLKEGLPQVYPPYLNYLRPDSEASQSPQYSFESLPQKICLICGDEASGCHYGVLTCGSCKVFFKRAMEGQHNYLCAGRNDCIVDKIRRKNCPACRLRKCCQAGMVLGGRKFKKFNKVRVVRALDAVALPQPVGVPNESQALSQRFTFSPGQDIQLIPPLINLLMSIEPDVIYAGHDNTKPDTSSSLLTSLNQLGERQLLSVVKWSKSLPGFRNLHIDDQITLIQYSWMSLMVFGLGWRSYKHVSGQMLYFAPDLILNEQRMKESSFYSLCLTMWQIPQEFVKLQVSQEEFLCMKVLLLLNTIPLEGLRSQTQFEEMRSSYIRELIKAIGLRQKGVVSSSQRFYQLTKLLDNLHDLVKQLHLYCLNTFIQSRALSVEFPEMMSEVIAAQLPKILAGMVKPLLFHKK
Put plainly: Radioligand binding assay with progesterone receptor cytosol (similar protocol). The source says:
Methods for Radioligand Binding Studies with Human Glucocorticoid and Progesterone Receptor Cytosol
A similar protocol was employed to measure affinity of the compounds of the present invention for progesterone receptor (PR).

The values below come from US6593480B2 (Abbott Laboratories, priority 1999, dated 2003).

Where only a bound is given, the exact number is not on record here.

With `CC#C[C@]1(O)CC[C@H]2[C@@H]3CCC4=CC(=O)CCC4=C3[C@@H](c3ccc(N(C)C)cc3)C[C@@]21C` [mifepristone], the “mRNA levels of PEPCK and glucose-6-phosphate in the liver” value in data set [1] (liver, db/db mice) was “reduces”. Moreover, the “reduction of plasma glucose levels” value in data set [1] (obese diabetic db/db transgenic mice) is recorded as 50%.

`COc1cccc2c1-c1ccc(NS(C)(=O)=O)c(C)c1C(c1cccc(C(F)(F)F)c1)O2` (centres unmarked) [Example 1, (1-methoxy-6-(3-trifluoromethyl)phenyl-7-methyl-6H-dibenzo(b,d)pyran-8-yl)methanesulfonamide]: the melting point (in general, the temperature, or range, at which the solid turns liquid) lay in the range of 217 to 218 °C. Moreover, the inhibition – broadly, the change of the read-out against control, counted positive when it falls – at 1.7 µM in data set [2] is 82.1%. The 50% inhibitory concentration (IC50) (usually the concentration that gives 50% inhibition) in data set [3] worked out at 5.63 µM.

Take “(1-methoxy-6-(4-chlorobutyl)-6H-dibenzo(b,d)pyran-8-yl)methanesulfonamide [Example 57]”: the “GR BINDING (% Inhibition @ 1.7 μM)” value in data set [2] is 94.9%. In data set [3], this compound came in with an IC50 of 1.09 µM.

`COCCCCOc1cccc(C2Oc3cccc(OC)c3-c3ccc(NS(C)(=O)=O)cc32)c1` (centres unmarked) [Example 95, N-{1-methoxy-6-[3-(4-methoxybutoxy)phenyl]-6H-benzo[c]chromen-8-yl}methanesulfonamide]: the inhibition at 1.7 µM in data set [2] was determined as 90%. The compound also showed a half-maximal inhibitory concentration (IC50) in data set [3] above 1 µM.

Consider `COc1cccc2c1-c1ccc(NS(C)(=O)=O)cc1C(c1ccc(C#N)cc1)O2` (centres unmarked) [Example 47], for which, in data set [2], the inhibition at 1.7 µM was determined as 94.5%. The compound also came in with an IC50 in data set [3] of 3.48 µM.

For “(1-difluoromethoxy-6-allyl-6H-dibenzo(b,d)pyran-8-yl)-methanesulfonamide [Example 31]”, the “GR BINDING (% Inhibition @ 1.7 μM)” value in data set [2] is 90.0%. This compound registered a concentration for half-maximal inhibition (IC50) in data set [3] of 0.079 µM.

Take “(1-methoxy-6-(3-cyanophenyl)-6H-dibenzo(b,d)pyran-8-yl)methanesulfonamide [Example 50]”: the “GR BINDING (% Inhibition @ 1.7 μM)” value in data set [2] was found to be 93.7%. The same compound had an IC50 in data set [3] of 1.05 µM.

Turning to `COc1cccc2c1-c1ccc(NS(C)(=O)=O)cc1C(c1ccc(Oc3ccc(Br)cc3)cc1)O2` (centres unmarked) [Example 153], the “GR BINDING (% Inhibition @ 1.7 μM)” value in data set [2] is 92.8%. Also, the IC50 in data set [3] was above 10 µM.
